US11260029B2, “Fish feed compositions containing a neonicotinoid for preventing and treating parasite infections” (priority 2014, dated 2022)
Where “and” joins values, the source holds several entries; their conditions need not be identical. Equal values may be shown once.

Tests used:
L. salmonis = conditions: in-feed 1, 5 or 10 mg/kg/day for 7 days; WO 2014/064184; cited from earlier work
salmon lice = conditions: 100 ppm bath; in one hour; U.S. Pat. No. 5,504,081; cited from earlier work
[1] = Tolerance of fish at five times the 20 mg/kg total dosage (mortalities, histology); assay type: in vivo, salmon
[2] = tested on: Lepeophtheirus pre-adult lice; test: Feed trials: removal of pre-adult sea lice from fish fed medicated feed; assay type: in vivo; conditions: for Lice removed by 11 days after last day of treatment / Lice removed by 3 days after last day of treatment: Feed Trial Number One; for Lice removed by 2 days after last day of treatment / Lice removed by 9 days after last day of treatment: Feed Trial Number Two
Procedure: Empyreal™ 75, a processed corn protein concentrate, was mixed with imidacloprid to form a pre-mix. This pre-mix was then added to salmon feeds using fish oil to help coat it onto the pellets to prepare the medicated feed.
Medicated feed for fish was prepared based on the amount of feed that the fish were consuming each day to give a total dosage to different tanks of fish of 10, 20, 40, 60 and 100 milligrams of active ingredient (imidacloprid) over a 5 day period. Experiments were run using total dosages given over 5 days of feeding. A 5 day period was used to provide efficacy, convenience and safety.
Individual fish weights ranged from 62 to 188 grams.
Sea lice have a number of developmental stages on salmon of which two are pre-adults that do a lot of damage to the fish (e.g. Lepeophtheirus pre-adult I, Lepeophtheirus pre-adult II, Caligus pre-adult I, Caligus pre-adult II). Compositions were tested on the two pre-adult stages of Lepeophtheirus. The disclosed compositions are also useful for killing sea lice in the adult male and adult female and adult gravid female stage and the juvenile chalimus stages.

[3] = 8 mg/kg fish per day, total 40 mg/kg
[4] = 12 mg/kg fish per day, total 60 mg/kg
[5] = 2 mg/kg fish per day, total 10 mg/kg

| SMILES | sea lice elimination (L. salmonis) | lice killed (salmon lice) [%] | abnormalities on histological examination of organs ([1]; 100 mg/kg total dosage) | mortalities ([1]; 100 mg/kg total dosage (five times the 20 mg/kg total dosage)) | Lepeophtheirus lice removed ([2]; 4 mg per kilogram per day for five days, three days into the five-day treatment) [%] | Lice removed by 11 days after last day of treatment ([2]; 4 mg/kg fish per day, total 20 mg/kg, 16 days after treatment had started) [%] | Lice removed by 11 days after last day of treatment ([2]; 4 mg/kg fish per day, total 20 mg/kg, 16 days after treatment had started, listed as imidacloprid) [%] | Lice removed by 3 days after last day of treatment ([2]; 4 mg/kg fish per day, total 20 mg/kg, eight days after the treatment had started) | Lice removed by 3 days after last day of treatment ([2]; 4 mg/kg fish per day, total 20 mg/kg, eight days after the treatment had started, listed as imidacloprid) [%] | Lice removed by 3 days after last day of treatment [2, 3] [%] | Lice removed by 11 days after last day of treatment [2, 3] [%^] | Lice removed by 3 days after last day of treatment [2, 4] [%] | Lice removed by 11 days after last day of treatment [2, 4] [%] | Lice removed by 2 days after last day of treatment [2, 5] [%] | Lice removed by 9 days after last day of treatment [2, 5] [%] | Lice removed by 9 days after last day of treatment ([2]; 2 mg/kg fish per day, total 10 mg/kg, listed as imidacloprid) [%] | Lice removed by 2 days after last day of treatment ([2]; 20 mg/kg fish per day, total 100 mg/kg) [%] | removal of lice ([2]; higher dosages trialed, 40, 60 and 100 milligrams total) |
| --- | --- | --- | --- | --- | --- | --- | --- | --- | --- | --- | --- | --- | --- | --- | --- | --- | --- | --- |
| CN/C(=N\[N+](=O)[O-])NCc1cnc(Cl)s1 [clothianidin] | full sea lice elimination |  |  |  |  |  |  |  |  |  |  |  |  |  |  |  |  |  |
| O=[N+]([O-])NC1=NCCN1Cc1ccc(Cl)nc1 [Imidacloprid, (2E)-1-((6-chloropyridin-3-yl)methyl)-N-nitroimidazolidin-2-imine] |  | 100 | no abnormalities detectable | no mortalities | 13.6 | 100 | 100 | 96.70% and 96.75% | 96.75 | 97.84 | 97.84 | 100 | 100 | 64.28 | 77.67 | 77.7 | 88.37 | very effective removal of lice |
